ChEMBL document CHEMBL5331068, “Briarane-type diterpenoids, the inhibitors of osteoclast formation by interrupting Keap1-Nrf2 interaction and activating Nrf2 pathway” (Eur J Med Chem, 2023)
Calls of active or inactive are those of the source. The calls are words filed in the database; no cut-off is given here.

Assays:
[1] = test system: BMDM; assay: Anti-osteoclastogenesis activity in C57BL/6 mouse BMDM cells assessed as inhibition of RANKL-induced osteoclastogenesis at 1 uM incubated for 7 days in the presence of M-CSF by TRAP-staining based microscopic analysis relative to control; type: functional; settings: C57BL/6, BMDM, 168 h, time 7 day
[2] = Cytotoxicity against C57BL/6 mouse BMDM cells incubated for 48 hrs by MTT assay; type: toxicity, cell-based; settings: BMDM cells (bone marrow-derived macrophages)
[3] = test system: BMDM; assay: Anti-osteoclastogenesis activity in C57BL/6 mouse BMDM cells assessed as inhibition of RANKL-induced osteoclastogenesis at 10 uM incubated for 7 days in the presence of M-CSF by TRAP-staining based microscopic analysis relative to control; type: functional; settings: C57BL/6, BMDM, 168 h, time 7 day
[4] = target: T1, Kelch-like ECH-associated protein 1 (Homo sapiens, UniProt Q14145); assay: Binding affinity to recombinant human Keap1 assessed as equilibrium dissociation constant by SPR analysis
[5] = target: T1, Kelch-like ECH-associated protein 1; assay: Binding affinity to recombinant human Keap1 by SPR analysis

T1 sequence (Q14145 whole entry): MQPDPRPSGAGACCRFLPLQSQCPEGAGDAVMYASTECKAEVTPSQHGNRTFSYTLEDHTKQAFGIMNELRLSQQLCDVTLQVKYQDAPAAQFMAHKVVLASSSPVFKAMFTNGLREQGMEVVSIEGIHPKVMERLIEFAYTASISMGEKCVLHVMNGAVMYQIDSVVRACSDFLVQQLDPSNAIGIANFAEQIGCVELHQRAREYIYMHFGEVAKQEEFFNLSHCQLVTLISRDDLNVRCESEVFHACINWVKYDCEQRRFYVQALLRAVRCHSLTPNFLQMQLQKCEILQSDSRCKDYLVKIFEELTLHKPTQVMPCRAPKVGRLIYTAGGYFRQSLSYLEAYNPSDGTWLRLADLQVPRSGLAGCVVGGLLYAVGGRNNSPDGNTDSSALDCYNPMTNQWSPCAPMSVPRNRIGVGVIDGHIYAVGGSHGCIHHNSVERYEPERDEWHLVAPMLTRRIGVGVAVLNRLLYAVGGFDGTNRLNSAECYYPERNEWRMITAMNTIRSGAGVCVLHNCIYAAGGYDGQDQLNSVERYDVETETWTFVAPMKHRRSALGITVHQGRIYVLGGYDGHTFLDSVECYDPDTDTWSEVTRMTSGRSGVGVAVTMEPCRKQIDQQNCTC

| SMILES | Kd [4] | Activity [5] | inhibition at 1 µM [1] | CC50 at 48 h [2] | inhibition at 10 µM [3] |
| --- | --- | --- | --- | --- | --- |
| O=P(O)(O)C(O)(Cn1ccnc1)P(=O)(O)O [ZOLEDRONIC ACID ANHYDROUS] |  |  | 87.1% |  |  |
| CC(=O)O[C@H]1[C@@H](O)[C@](O)(CO)[C@@H]2[C@H](OC(C)=O)[C@@]3(O)[C@H](/C=C(CO)\C=C/[C@H](OC(C)=O)[C@@]2(C)[C@H]1OC(=O)CC(C)C)OC(=O)[C@@H]3C |  | inactive |  | > 50 µM | 57.6% |
| CC(=O)O[C@H]1[C@@H](O)[C@](O)(CO)[C@@H]2[C@H](OC(C)=O)[C@@]3(O)[C@H](/C=C(COC(=O)CC(C)C)\C=C/[C@H](OC(C)=O)[C@@]2(C)[C@H]1OC(C)=O)OC(=O)[C@@H]3C |  | inactive |  | > 50 µM | 100% |
| CC(=O)O[C@H]1CC[C@](O)(CO)[C@@H]2[C@H](OC(C)=O)[C@@]3(O)[C@H](/C=C(CO)\C=C/[C@H](OC(=O)COC(=O)CC(C)C)[C@@]12C)OC(=O)[C@@H]3C | > 100 µM | inactive |  | > 50 µM | 33.7% |
| C=C1[C@H]2O[C@]3([C@@H](C)C(=O)O[C@H]3[C@H]1Cl)[C@@H](OC(C)=O)[C@H]1[C@@]3(CO3)[C@H](OC(C)=O)C[C@H](OC(C)=O)[C@]1(C)[C@@H](OC(C)=O)[C@@H]2OC(C)=O |  | Active |  | > 50 µM | 37.1% |

The next lines start with results.

| Kd [4] | Activity [5] | SMILES | inhibition at 1 µM [1] | CC50 at 48 h [2] | inhibition at 10 µM [3] |
| --- | --- | --- | --- | --- | --- |
| 6.6 µM |  | CC(=O)O[C@H]1/C=C\C(CO)=C/[C@@H]2OC(=O)[C@H](C)[C@@]2(O)[C@@H](OC(C)=O)[C@H]2[C@@](O)(CO)CC[C@H](OC(C)=O)[C@]12C |  | > 50 µM | 32% |
| 6.2 µM |  | CCOCC1=C/[C@@H]2OC(=O)[C@H](C)[C@@]2(O)[C@@H](OC(C)=O)[C@H]2[C@@]3(CO3)[C@H](OC(C)=O)C[C@H](OC(C)=O)[C@]2(C)[C@@H](OC(C)=O)/C=C\1 |  | > 50 µM | 88.3% |
| > 100 µM |  | CCOCC1=C/[C@@H]2OC(=O)[C@H](C)[C@@]2(O)[C@@H](OC(C)=O)[C@H]2[C@@]3(CO3)[C@H](OC(C)=O)C[C@H](OC(=O)CC(C)C)[C@]2(C)[C@@H](OC(C)=O)/C=C\1 |  | > 50 µM | 38.4% |
|  | Active | C=C1/C=C\[C@H](OC(C)=O)[C@@]2(C)[C@@H](OC(C)=O)CC[C@]3(CO3)[C@@H]2[C@H](OC(C)=O)[C@]2(O)[C@@H](C)C(=O)O[C@H]2[C@H]1Cl |  | > 50 µM | 97.1% |
